The subject of assay [1] is DCC α-fragment. Put plainly: DCC α-fragment Western blot, mouse ex vivo embryonic spinal cord. It is filed as cell-based, CD-1 mice. To be noted: embryonic day 15 spinal cord segments, 1 μM, 24 h, normalized to actin. From the text:
(§1) Previous reports have shown that DCC (deleted in colorectal cancer) is a γ-secretase substrate. DCC is the receptor for the guidance molecule, netrin, and its activation results in neuronal axon outgrowth, axon turning and synapse formation. Embryonic spinal cords of presenilin knockout mice treated display persistent expression of the DCC α-fragment; these fragments can enhance netrin-DCC mediated events, including axon outgrowth in cultured motor neurons (Taniguchi et al., 2003, J. Biol. Chem., 278:30425-30428, and Bai et al., 2011, Cell, 144(1): 106-18). The following studies were performed using GSM, “RO”, as well as the GSI, Compound I. RO has the structure:
Spinal cords from embryonic day 15 CD-1 mice were collected and cut into 1-2 mm segments and transferred to serum-free growth media (DMEM-F12, N2 and B27 serum supplements, penicillin/streptomycin) with 1 μM RO or 1 μM Compound I. Segments were cultured for 24 h (37° C., 5% CO2) then processed for Western blot. Membranes were probed with a DCC antibody recognizing the intracellular domain and bands were normalized to actin.

The test system of assay [2] is DCC α-fragment. Nature of the assay: DCC α-fragment Western blot, mouse ex vivo cochlea (spiral ganglion). It is filed as cell-based, CD-1 mice. To be noted: postnatal day 21 cochlea, 1 μM, 24 h, normalized to actin.
Source text: as §1
Cochleae were obtained from postnatal day 21 CD-1 mice. An opening was made in the bone at the cochlear apex to allow for fluid flow. Cochlea were incubated in serum-free growth media (DMEM-F12, N2 and B27 serum supplements, penicillin/streptomycin) with 1 μM RO or 1 μM Compound I. After 24 h, spiral ganglion were isolated and processed for Western blot. Membranes were probed with a DCC antibody recognizing the intracellular domain and bands were normalized to actin.

The subject of assay [3] is Type I spiral ganglion neurons. Nature of the assay: Type I spiral ganglion neuron neurite outgrowth with GSIs. In kind it is cell-based, CD-1 mice. To be noted: 24-48 h, 0.1% DMSO. The procedure:
Mouse spiral ganglion neurons (SGN) were harvested from CD-1 mice (postnatal day 3 to 5), dissociated and cultured on collagen I in serum free media. Cells were treated for 24-48 h with test compound in 0.1% DMSO then immunostained with the neurite marker, Tuj1 and imaged. Neurite length was quantified using ImageJ software (developed by NIH and available publicly). Only Tuj1^+ cells with clear bipolar morphology characteristic of Type I SGNs were quantified. The test compounds were Compound I, Compound II, and RO4929097, as well as the Notch sparing GSI, BMS-708163; NT-3 was included as positive control. […] Moreover, BMS-708163, a Notch-sparing GSI, and Compound I, a Notch inhibiting GSI, both increased type I SGN neurite outgrowth (FIG. 6C).

A further assay deals with inner hair cell synapses. Nature of the assay: Mouse noise-induced cochlear synaptopathy, local GSI (synapse counts, ABR wave I). In kind it is in vivo, CBA/J mice. The procedure:
Two separate experiments were conducted using this protocol: in Experiment 1 (FIG. 7A) compound I treatment was compared to NT3, in Experiment 2 (FIG. 7B, 7C and FIG. 8) we evaluated two dose levels of compound I. For both experiments female CBA/J mice 6 weeks old (The Jackson Laboratory, Bar Harbor, Me.) were exposed, awake and unrestrained, to filtered octave band noise (8-16 kHz) for 2 hours at 98 dB SPL in a reverberant sound-exposure box. Mice were placed in a custom designed wire cage sitting atop high density 4-inch foam with the wire floor 1-inch above the foam. The noise waveform was generated and filtered with a TDT RZ6 pre-amplifier (Tucker Davis Technologies, Alachua, Fla.), amplified by a Crown XLS1000 power amplifier, and delivered by JBL 2426H Compression Driver coupled to a JBL 2730A horn. Sound levels were verified in the center of the cage using a ¼-inch condenser microphone (PCB Piezotronics, Depew, N.Y.) before each exposure. ABR was collected 1 and 14 days post-noise exposure to ensure a temporary threshold shift with no permanent threshold shift. Seventeen days after noise, mice were dosed bilaterally with crystalline Compound I, (2% in PF10*) or NT3 (2 μL of 150 ng/μL) (Experiment 1); crystalline Compound I (2% and 0.2% in PF10) (Experiment 2); and ABR was collected 14 days post-dose. Vehicle control animals received bilateral injections of PF10. Age matched naïve control animals were also used.
ABR Wave I analysis: The auditory brain-stem response (ABR) waveform comprises a set of waves (labeled I-V). Mice were anesthetized with ketamine and xylazine. ABR waveforms were collected using Tucker-Davis Technologies RZ6 Auditory Processor. The stimuli used were 5 ms tone (2 ms cos 2 rise-fall) at frequencies from 4, 8, 16, 24, and 32 kHz delivered in alternating polarity at 21/s. […] Wave I peak amplitudes were determined by extracting the raw waveform voltage averages and determining the window or latency at which the peak of wave I appears. […]

Setting [4] is: both 0.2% and 2% dosages in PF10, bilateral, 17 days after noise, 14 days post-dose.

As for `C[C@H](OC(=O)NCC(F)(F)C(F)(F)F)C(=O)N[C@@H]1C(=O)Nc2ccccc2-c2ccccc21` [Compound I, (2,2,3,3,3-pentafluoropropyl)-carbamic acid (S)-1-((S)-6-oxo-6,7-dihydro-5H-dibenzo[b,d]azepin-7-ylcarbamoyl) ethyl ester], the “DCC α-fragment level compared to the vehicle group” value in the assay on DCC α-fragment [1] and with DCC α-fragment [2] was “Increase in α-fragment” each time. Also, the “lengths of Type I SGN neurites” value in assay [3] was “significant increase”. Further, the “synapse recovery in the mid 1 region (16-24 kHz)” value with inner hair cell synapses (setting [4]) is given as “nearly complete synapse recovery”. In the assay on inner hair cell synapses (setting [4]), the “synapse recovery in the mid 2 region (24-32 kHz)” value is “nearly complete synapse recovery”. The “ABR wave I amplitudes” value with inner hair cell synapses (local administration following noise induced synaptopathy) is “improved wave I amplitudes”.

The values are drawn from US10925872B2, “Methods of treating cochlear synaptopathy” (PIPELINE THERAPEUTICS, INC., priority 2016, dated 2021).
